Test results from PubChem BioAssay AID2060332 (Molecular Pharmacology Branch, DTP, NCI, 2025).

System: LG0567-F671-PDC multi-cell spheroid viability
Assay: Anticancer human tumor LG0567-F671-PDC patient-derived lung adenocarcinoma cell line growth inhibition [IpAb]
Conditions: for IC50: curve of first compound; for viability, T/C: stronger effect = lower value
How it was run: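 Combinations with ipatasertib or abemaciclib were tested on tumour spheroids holding HUVEC (25%) and MSC (15%) alongside 60% malignant cells. Top concentration was at or near clinical Cmax (10 microM if undefined), descending in half-log steps.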
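Further: viability read after 7 days of drug exposure.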
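Wherever viability, T/C is given: 100% = DMSO vehicle control luminescence.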

CC(C)(C)c1cnc(CSc2cnc(NC(=O)C3CCNCC3)s2)o1 + CC(C)NCC(C(=O)N1CCN(c2ncnc3c2C(C)CC3O)CC1)c1ccc(Cl)cc1
IC50 (second compound 0.1 µM): 0.169 µM
IC50 (second compound 0.316 µM): 0.137 µM
IC50 (second compound 1 µM): 0.158 µM
IC50 (second compound 3.16 µM): 0.152 µM
IC50 (second compound 10 µM): 0.148 µM
viability, T/C (second compound 0.1 µM, first compound 0.00949 µM): 117%
viability, T/C (second compound 0.1 µM, first compound 0.03 µM): 110%
viability, T/C (second compound 0.1 µM, first compound 0.0949 µM): 96.3%
viability, T/C (second compound 0.1 µM, first compound 0.3 µM): 3.55%
viability, T/C (second compound 0.1 µM, first compound 0.949 µM): 1.37%
viability, T/C (second compound 0.1 µM, first compound 3 µM): 0.93%
viability, T/C (second compound 0.316 µM, first compound 0.00949 µM): 73.6%
viability, T/C (second compound 0.316 µM, first compound 0.03 µM): 111%
viability, T/C (second compound 0.316 µM, first compound 0.0949 µM): 72.7%
viability, T/C (second compound 0.316 µM, first compound 0.3 µM): 2.55%
viability, T/C (second compound 0.316 µM, first compound 0.949 µM): 1.26%
viability, T/C (second compound 0.316 µM, first compound 3 µM): 0.62%
viability, T/C (second compound 1 µM, first compound 0.00949 µM): 95.6%
viability, T/C (second compound 1 µM, first compound 0.03 µM): 117%
viability, T/C (second compound 1 µM, first compound 0.0949 µM): 88.8%
viability, T/C (second compound 1 µM, first compound 0.3 µM): 2.06%
viability, T/C (second compound 1 µM, first compound 0.949 µM): 0.88%
viability, T/C (second compound 1 µM, first compound 3 µM): 0.72%
viability, T/C (second compound 3.16 µM, first compound 0.00949 µM): 97.9%
viability, T/C (second compound 3.16 µM, first compound 0.03 µM): 113%
viability, T/C (second compound 3.16 µM, first compound 0.0949 µM): 82.9%
viability, T/C (second compound 3.16 µM, first compound 0.3 µM): 2.53%
viability, T/C (second compound 3.16 µM, first compound 0.949 µM): 0.89%
viability, T/C (second compound 3.16 µM, first compound 3 µM): 0.79%
viability, T/C (second compound 10 µM, first compound 0.00949 µM): 79.2%
viability, T/C (second compound 10 µM, first compound 0.03 µM): 74.1%
viability, T/C (second compound 10 µM, first compound 0.0949 µM): 88%
viability, T/C (second compound 10 µM, first compound 0.3 µM): 1.97%
viability, T/C (second compound 10 µM, first compound 0.949 µM): 0.87%
viability, T/C (second compound 10 µM, first compound 3 µM): 0.7%
